ChEMBL document CHEMBL3860068, “Class II Phosphoinositide 3-Kinases as Novel Drug Targets” (J Med Chem, 2017)
Blank lines part the entries; values can stand above or below the compound they belong to.

Columns and labels:
[1] = biological target: T1, Phosphatidylinositol 4-phosphate 3-kinase C2 domain-containing subunit beta (Homo sapiens, UniProt O00750); test: Inhibition of PI3KC2beta (unknown origin) expressed in HEK293 cells using phosphatidylinositol and gamma-32P-ATP incubated for 20 mins by TLC assay or high-throughput membrane capture assay; type: cell-based
[2] = biological target: T2, Phosphatidylinositol 3-kinase catalytic subunit type 3 (Homo sapiens, UniProt Q8NEB9); test: Inhibition of full length human recombinant VPS34 (unknown origin) using phosphatidylinositol and gamma-32P-ATP incubated for 20 mins by TLC assay or high-throughput membrane capture assay
[3] = Inhibition of class 1 PI3K (unknown origin); parameters: species or system Homo sapiens
[4] = Inhibition of class 4 PI3K (unknown origin); parameters: species or system Homo sapiens
[5] = biological target: T3, Phosphatidylinositol 4-phosphate 3-kinase C2 domain-containing subunit alpha (Homo sapiens, UniProt O00443); test: Inhibition of PI3KC2alpha (unknown origin)
[6] = biological target: T1, Phosphatidylinositol 4-phosphate 3-kinase C2 domain-containing subunit beta; test: Inhibition of PI3KC2beta (unknown origin)
[7] = biological target: T4, Phosphatidylinositol 3-kinase C2 domain-containing subunit gamma (Homo sapiens, UniProt O75747); test: Inhibition of PI3KC2gamma (unknown origin)
T4 sequence (O75747 whole entry): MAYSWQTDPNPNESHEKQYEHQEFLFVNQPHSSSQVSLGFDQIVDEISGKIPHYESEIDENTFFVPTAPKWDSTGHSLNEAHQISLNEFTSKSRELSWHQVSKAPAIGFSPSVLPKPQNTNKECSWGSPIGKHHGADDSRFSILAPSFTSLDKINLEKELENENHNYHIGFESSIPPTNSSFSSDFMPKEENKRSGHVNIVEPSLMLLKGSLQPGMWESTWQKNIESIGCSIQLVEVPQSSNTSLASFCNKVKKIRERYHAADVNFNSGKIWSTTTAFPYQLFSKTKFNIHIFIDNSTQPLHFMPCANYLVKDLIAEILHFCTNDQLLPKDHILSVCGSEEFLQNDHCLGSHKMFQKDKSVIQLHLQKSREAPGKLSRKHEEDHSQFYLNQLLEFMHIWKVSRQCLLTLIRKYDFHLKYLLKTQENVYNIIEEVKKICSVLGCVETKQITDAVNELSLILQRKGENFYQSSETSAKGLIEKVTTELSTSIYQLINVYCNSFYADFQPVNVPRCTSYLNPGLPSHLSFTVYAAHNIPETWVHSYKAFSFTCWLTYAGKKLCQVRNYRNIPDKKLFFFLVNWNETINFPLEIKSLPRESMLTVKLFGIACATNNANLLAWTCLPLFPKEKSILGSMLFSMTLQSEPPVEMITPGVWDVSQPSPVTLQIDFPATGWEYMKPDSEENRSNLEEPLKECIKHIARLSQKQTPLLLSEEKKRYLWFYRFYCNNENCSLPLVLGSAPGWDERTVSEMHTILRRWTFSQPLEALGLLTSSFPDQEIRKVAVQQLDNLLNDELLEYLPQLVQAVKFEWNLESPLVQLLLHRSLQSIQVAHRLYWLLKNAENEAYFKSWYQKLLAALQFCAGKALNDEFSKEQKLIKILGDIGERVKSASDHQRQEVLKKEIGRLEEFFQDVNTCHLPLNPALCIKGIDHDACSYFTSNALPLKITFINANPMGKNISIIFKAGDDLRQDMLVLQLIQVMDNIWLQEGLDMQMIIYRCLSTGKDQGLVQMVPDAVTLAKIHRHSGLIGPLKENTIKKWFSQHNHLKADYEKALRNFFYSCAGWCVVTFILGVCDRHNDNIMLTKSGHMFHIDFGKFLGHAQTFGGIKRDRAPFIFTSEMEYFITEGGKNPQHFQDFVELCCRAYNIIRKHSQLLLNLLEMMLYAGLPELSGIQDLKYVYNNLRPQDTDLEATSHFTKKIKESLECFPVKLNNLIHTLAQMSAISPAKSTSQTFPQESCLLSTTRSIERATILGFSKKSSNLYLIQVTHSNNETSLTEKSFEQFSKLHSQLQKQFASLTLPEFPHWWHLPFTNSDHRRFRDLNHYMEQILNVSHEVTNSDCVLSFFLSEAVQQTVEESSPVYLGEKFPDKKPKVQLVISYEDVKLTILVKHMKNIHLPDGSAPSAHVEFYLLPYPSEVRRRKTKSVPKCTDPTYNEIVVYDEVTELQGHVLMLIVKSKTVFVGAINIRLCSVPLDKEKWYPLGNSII

[8] = biological target: Phosphatidylinositol 4,5-bisphosphate 3-kinase catalytic subunit gamma isoform (Homo sapiens, UniProt P48736); test: Inhibition of PI3Kgamma (unknown origin)
[9] = biological target: T3, Phosphatidylinositol 4-phosphate 3-kinase C2 domain-containing subunit alpha; test: Inhibition of PI3KC2alpha (unknown origin) expressed in HEK293 cells using phosphatidylinositol and gamma-32P-ATP incubated for 20 mins by TLC assay or high-throughput membrane capture assay; type: cell-based
[10] = biological target: T5, DNA-dependent protein kinase catalytic subunit (Homo sapiens, UniProt P78527); test: Inhibition of DNA-PK (unknown origin)
[11] = biological target: T3, Phosphatidylinositol 4-phosphate 3-kinase C2 domain-containing subunit alpha; test: Inhibition of human recombinant PI3KC2alpha using substrate PI incubated for 1 hr by Adapta kinase assay
[12] = biological target: T1, Phosphatidylinositol 4-phosphate 3-kinase C2 domain-containing subunit beta; test: Inhibition of human recombinant PI3KC2beta using substrate PI incubated for 1 hr by Adapta kinase assay
[13] = biological target: T2, Phosphatidylinositol 3-kinase catalytic subunit type 3; test: Inhibition of human recombinant Vps34 using substrate PI incubated for 1 hr by Adapta kinase assay
[14] = biological target: T2, Phosphatidylinositol 3-kinase catalytic subunit type 3; test: Inhibition of N-terminal tagged full-length human VPS34 by luciferase-luciferin-coupled chemiluminescence assay
[15] = biological target: T5, DNA-dependent protein kinase catalytic subunit; test: Inhibition of human DNA-PK by luciferase-luciferin-coupled chemiluminescence assay

T1 sequence (O00750 whole entry, the tested form may be a part): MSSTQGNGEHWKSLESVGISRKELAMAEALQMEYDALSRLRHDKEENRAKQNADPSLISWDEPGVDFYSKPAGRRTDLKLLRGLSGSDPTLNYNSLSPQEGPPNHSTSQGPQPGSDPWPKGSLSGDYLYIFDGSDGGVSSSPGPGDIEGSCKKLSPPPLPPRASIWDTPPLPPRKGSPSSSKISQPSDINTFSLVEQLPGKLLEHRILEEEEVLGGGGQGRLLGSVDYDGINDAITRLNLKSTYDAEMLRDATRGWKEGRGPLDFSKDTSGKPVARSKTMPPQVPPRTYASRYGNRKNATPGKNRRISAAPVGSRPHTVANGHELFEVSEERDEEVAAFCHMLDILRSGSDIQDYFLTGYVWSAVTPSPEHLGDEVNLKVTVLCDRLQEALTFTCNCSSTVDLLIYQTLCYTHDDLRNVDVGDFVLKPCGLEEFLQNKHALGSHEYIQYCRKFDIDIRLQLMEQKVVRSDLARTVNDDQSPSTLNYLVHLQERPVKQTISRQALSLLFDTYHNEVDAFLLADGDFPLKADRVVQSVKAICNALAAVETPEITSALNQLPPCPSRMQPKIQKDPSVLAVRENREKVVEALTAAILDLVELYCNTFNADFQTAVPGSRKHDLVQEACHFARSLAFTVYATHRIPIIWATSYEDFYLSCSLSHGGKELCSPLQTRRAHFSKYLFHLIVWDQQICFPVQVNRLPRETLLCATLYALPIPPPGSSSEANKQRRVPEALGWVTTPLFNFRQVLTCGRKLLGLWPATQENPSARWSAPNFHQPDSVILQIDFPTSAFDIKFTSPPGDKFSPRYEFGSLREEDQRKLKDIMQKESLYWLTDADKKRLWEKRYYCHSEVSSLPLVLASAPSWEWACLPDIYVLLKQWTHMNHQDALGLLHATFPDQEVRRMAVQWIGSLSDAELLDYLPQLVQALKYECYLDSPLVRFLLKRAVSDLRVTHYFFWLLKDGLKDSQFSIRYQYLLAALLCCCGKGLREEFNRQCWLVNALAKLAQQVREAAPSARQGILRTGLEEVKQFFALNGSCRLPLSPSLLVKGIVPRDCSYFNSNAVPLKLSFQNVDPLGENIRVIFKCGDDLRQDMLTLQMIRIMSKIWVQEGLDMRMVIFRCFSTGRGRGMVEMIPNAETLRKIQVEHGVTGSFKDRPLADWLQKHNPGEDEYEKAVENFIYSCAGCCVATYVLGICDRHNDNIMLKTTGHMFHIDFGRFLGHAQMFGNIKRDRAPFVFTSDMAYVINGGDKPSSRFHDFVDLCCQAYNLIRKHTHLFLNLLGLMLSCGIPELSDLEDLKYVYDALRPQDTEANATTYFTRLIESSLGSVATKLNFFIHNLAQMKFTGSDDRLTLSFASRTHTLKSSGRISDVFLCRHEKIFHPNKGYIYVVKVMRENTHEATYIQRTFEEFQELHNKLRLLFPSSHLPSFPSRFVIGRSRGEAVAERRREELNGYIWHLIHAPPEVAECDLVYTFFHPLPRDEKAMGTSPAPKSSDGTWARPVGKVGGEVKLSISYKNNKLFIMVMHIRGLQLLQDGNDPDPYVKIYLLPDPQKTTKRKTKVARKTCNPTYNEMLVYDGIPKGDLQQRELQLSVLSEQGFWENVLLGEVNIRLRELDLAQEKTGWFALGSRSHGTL
T2 sequence (Q8NEB9 whole entry): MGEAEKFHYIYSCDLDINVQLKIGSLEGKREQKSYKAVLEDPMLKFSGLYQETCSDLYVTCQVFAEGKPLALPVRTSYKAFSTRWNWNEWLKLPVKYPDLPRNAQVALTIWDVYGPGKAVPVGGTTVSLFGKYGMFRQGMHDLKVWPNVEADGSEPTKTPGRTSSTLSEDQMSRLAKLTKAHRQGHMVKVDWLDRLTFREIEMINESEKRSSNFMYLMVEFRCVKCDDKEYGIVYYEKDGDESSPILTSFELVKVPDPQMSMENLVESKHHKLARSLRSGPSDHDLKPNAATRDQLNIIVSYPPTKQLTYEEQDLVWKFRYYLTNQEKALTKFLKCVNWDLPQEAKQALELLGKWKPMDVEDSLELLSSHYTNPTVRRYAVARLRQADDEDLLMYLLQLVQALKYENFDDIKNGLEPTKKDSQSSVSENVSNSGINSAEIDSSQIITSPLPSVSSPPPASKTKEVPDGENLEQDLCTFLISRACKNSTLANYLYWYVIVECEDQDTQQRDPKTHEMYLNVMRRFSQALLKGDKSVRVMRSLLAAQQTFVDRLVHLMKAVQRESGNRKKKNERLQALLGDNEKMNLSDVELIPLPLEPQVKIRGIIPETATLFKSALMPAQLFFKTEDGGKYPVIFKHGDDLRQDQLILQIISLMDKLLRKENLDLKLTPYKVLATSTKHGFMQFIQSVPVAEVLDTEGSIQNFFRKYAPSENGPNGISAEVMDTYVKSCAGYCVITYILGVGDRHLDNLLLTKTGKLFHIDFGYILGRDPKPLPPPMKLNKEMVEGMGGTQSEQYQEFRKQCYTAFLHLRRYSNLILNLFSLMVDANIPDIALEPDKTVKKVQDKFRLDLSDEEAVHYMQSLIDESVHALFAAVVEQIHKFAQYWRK
T3 sequence (O00443 whole entry, the tested form may be a part): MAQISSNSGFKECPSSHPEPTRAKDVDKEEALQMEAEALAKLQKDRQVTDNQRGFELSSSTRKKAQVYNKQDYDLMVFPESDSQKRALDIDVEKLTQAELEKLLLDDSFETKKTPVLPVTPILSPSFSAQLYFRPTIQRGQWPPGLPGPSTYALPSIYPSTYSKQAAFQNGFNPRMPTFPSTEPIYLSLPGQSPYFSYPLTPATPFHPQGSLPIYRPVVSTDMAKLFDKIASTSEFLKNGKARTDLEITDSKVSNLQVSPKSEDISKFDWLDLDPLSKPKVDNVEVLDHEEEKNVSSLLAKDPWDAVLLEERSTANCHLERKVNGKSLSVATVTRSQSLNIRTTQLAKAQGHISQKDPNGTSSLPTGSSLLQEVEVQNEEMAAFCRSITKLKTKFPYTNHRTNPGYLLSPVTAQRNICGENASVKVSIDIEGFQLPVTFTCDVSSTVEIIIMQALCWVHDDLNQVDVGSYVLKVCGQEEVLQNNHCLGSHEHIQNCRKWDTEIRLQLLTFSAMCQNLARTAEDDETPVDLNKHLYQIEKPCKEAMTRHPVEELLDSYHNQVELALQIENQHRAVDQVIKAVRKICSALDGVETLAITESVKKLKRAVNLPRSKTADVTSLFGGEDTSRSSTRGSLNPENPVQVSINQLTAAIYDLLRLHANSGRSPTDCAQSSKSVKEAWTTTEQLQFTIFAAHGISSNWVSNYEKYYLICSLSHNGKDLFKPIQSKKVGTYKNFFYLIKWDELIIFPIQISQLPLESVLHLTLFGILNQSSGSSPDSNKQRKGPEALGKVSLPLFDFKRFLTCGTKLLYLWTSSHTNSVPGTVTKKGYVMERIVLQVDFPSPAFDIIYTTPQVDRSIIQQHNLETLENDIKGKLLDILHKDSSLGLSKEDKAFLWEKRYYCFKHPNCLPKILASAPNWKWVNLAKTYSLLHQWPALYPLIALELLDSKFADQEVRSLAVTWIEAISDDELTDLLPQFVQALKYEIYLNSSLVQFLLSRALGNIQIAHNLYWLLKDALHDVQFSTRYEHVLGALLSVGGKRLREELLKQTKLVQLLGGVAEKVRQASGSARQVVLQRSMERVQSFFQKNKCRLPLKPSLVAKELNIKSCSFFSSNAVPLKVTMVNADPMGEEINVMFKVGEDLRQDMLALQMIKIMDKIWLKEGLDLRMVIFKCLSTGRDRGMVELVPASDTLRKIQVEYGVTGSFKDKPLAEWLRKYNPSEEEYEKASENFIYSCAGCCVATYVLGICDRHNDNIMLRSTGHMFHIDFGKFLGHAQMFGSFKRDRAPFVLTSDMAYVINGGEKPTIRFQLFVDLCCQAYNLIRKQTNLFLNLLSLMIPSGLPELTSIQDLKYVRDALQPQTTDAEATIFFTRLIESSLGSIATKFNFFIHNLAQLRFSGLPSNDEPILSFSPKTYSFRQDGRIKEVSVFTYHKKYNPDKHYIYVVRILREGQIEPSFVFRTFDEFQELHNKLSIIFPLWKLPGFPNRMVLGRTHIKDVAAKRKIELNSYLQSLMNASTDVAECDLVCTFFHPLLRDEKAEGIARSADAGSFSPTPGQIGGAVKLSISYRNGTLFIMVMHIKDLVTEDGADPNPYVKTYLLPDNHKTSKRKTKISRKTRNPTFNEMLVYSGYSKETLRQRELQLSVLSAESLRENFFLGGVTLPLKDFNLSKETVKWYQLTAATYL

- IC50 [1]: 14 µM
- IC50 [2]: 320 nM
SMILES: CC(=O)Nc1nc(C)c(-c2ccc(Cl)c(S(=O)(=O)NCCO)c2)s1

- IC50 [2]: 830 nM
SMILES: COc1ccc2c(c1OC)N=C(NC(=O)c1cccnc1)N1CCN=C21

- IC50 [3]: > 10 µM
- IC50 [4]: > 100 µM
SMILES: CC(=O)Nc1ccc2nc(-c3cccc(NS(=O)(=O)c4ccccc4)c3)nc(N3CCOCC3)c2c1

- IC50 [5]: > 10 µM
- IC50 [6]: > 10 µM
- IC50 [7]: > 10 µM
- IC50 [3]: > 10 µM
- IC50 [4]: > 10 µM
SMILES: C[C@@H]1COCCN1c1cc(=O)n2c(n1)N(Cc1cncc(Cl)c1)[C@H](C(F)(F)F)CC2

- IC50 [4]: > 9.1 µM
- IC50 [8]: 3 µM
SMILES: Nc1ncc(-c2ccnc(Nc3ccncc3)n2)c(CC2CC2)n1

- IC50 [3]: > 10 µM
- IC50 [4]: > 100 µM
SMILES: CC(=O)Nc1ccc2nc(-c3cccc(NS(=O)(=O)c4ccc5ccccc5c4)c3)nc(N3CCOCC3)c2c1

SMILES: CC(C)(O)CNc1ncc(-c2ccnc(Nc3ccnc(Cl)c3)n2)c(CC2CC2)n1
- IC50 [5]: > 10 µM
- IC50 [6]: > 10 µM
- IC50 [7]: > 10 µM
- IC50 [3]: > 10 µM
- IC50 [4]: > 1 µM

- IC50 [9]: 140 nM
- IC50 [1]: 0.37 µM
- IC50 [2]: 10000 nM
- IC50 [10]: 1500 nM
SMILES: O=C1NC(=S)S/C1=C\c1ccc2c(c1)N(Cc1ccc(F)c(Cl)c1)C(=O)CO2

- IC50 [11]: 34 nM
- IC50 [12]: 44 nM
- IC50 [13]: 450 nM
SMILES: Cn1c(=O)n(-c2ccc(C(C)(C)C#N)cc2)c2c3cc(-c4cnc5ccccc5c4)ccc3ncc21 [DACTOLISIB]

- IC50 [5]: > 10 µM
SMILES: CS(=O)(=O)N1CCN(Cc2cc3nc(-c4cccc5[nH]ncc45)nc(N4CCOCC4)c3s2)CC1 [PICTILISIB]

- IC50 [14]: 7 µM
- IC50 [15]: 4.8 µM
SMILES: COc1ccc(Cl)c(Nc2nc3ccccc3nc2NS(=O)(=O)c2cccc(NC(=O)C(C)(C)N)c2)c1 [PILARALISIB]

- IC50 [13]: > 100000 nM
SMILES: FC(F)c1nc2ccccc2n1-c1nc(N2CCOCC2)nc(N2CCOCC2)n1 [ZSTK-474]
